Measured values taken from patent EP2951180B1, “2,6,7,8 SUBSTITUTED PURINES AS HDM2 INHIBITORS” (Merck Sharp & Dohme Corp., priority 2013, dated 2014).

Biological target: T1, HDM2 (Homo sapiens, UniProt Q00987)
T1 construct: Thioredoxin (N); made in house; host or cells: E. coli strain BL21(DE3)Rosetta
Test: FRET assay (HDM2 inhibition; method not described in this part)
Type: binding

T1 sequence (Q00987 17-125): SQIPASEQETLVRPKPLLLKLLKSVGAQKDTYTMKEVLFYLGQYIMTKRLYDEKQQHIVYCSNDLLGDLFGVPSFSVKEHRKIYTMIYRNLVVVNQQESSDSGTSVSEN

SMILES | IC50 (Table 1) [nM] | also measured
C[C@@H](Nc1nc(C(=O)O)nc2nc(-c3ccc(S(C)(=O)=O)cc3)n(Cc3ccc(C(F)(F)F)cc3)c12)C1CCC1 [Example 1.24, 6-{[(1R)-1-cyclobutylethyl]amino}-8-[4-(methylsulfonyl)phenyl]-7-[4-(trifluoromethyl)benzyl] - 7H-purine-2-carboxylic acid] | 112 | –
CC(C)c1ccnc(-c2nc3nc(C(=O)O)nc(N(C)[C@H](C)C4CCC4)c3n2Cc2ccc(C(F)(F)F)c(F)c2)c1 [Example 1.13, (R)-6-((1-cyclobutylethyl)(methyl)amino)-7-(3-fluoro-4-(trifluoromethyl)benzyl)-8-(4-isopropylpyridin-2-yl)-7H-purine-2-carboxylic acid] | 158 | –
COc1cc(C#N)cc(-c2nc3nc(C(=O)O)nc(N[C@H](C)C4CCC4)c3n2Cc2ccc(C(F)(F)F)cc2)c1 [Example 2.64, 8-(3-cyano-5-methoxyphenyl)-6-{[(1R)-1-cyclobutylethyl]amino}-7-[4-(trifluoromethyl)benzyl]-7H-purine-2-carboxylic acid] | – | IC50 (Table 2): 89.1 nM
CC(C)c1cc(-c2nc3nc(C(=O)O)nc(N[C@H](C)C4CCC4)c3n2Cc2ccc(C(F)(F)F)cc2)ncc1F [Example 1.10, (R)-6-((1-cyclobutylethyl)amino)-8-(5-fluoro-4-isopropylpyridin-2-yl)-7-(4-(trifluoromethyl)benzyl)-7H-purine-2-carboxylic acid] | 3.96 | –
C[C@@H](Nc1nc(C(=O)O)nc2nc(-c3ccc(-c4ccccc4)c(F)c3)n(Cc3ccc(C(F)(F)F)cc3)c12)C1CCC1 [Example 1.112, 6-{[(1R)-1-cyclobutylethyl]amino}-8-(2-fluorobiphenyl-4-yl)-7-[4-(trifluoromethyl)benzyl]-7H-purine-2-carboxylic acid] | 344 | –
C[C@@H](Nc1nc(C(=O)O)nc2nc(-c3cccc(F)c3F)n(Cc3ccc(C(F)(F)F)cc3)c12)C1CC1 [Example 2.73, 6-{[(1R)-1-cyclopropylethyl]amino}-8-(2,3-difluorophenyl)-7-[4-(trifluoromethyl)benzyl]-7H-purine-2-carboxylic acid] | – | IC50 (Table 2): 111 nM
CC(C)c1ccnc(-c2nc3nc(C(=O)O)nc(N[C@@H](C)C4CCC4)c3n2Cc2ccc(C(F)(F)F)cc2)c1 [Example 1.50] | 128 | –
C[C@@H](Nc1nc(C(=O)O)nc2nc(-c3nccs3)n(Cc3ccc(C(F)(F)F)cc3)c12)C1CCC1 [Example 3.9, 6-{[(1R)-1-cyclobutylethyl]amino}-8-(1,3-thiazol-2-yl)-7-[4-(trifluoromethyl)benzyl] -7H-purine-2-carboxylic acid] | – | IC50 (Table 3): 7.86 nM
C[C@@H](Nc1nc(C(=O)O)nc2nc(-c3ccc(C#N)cc3)n(Cc3ccc(C(F)(F)F)cc3)c12)C1CC1 [Example 2.57, 8-(4-cyanophenyl)-6-{[(1R)-1-cyclopropylethyl]amino}-7-[4-(trifluoromethyl)benzyl]-7H-purine-2-carboxylic acid] | – | IC50 (Table 2): 432 nM
Cc1ccc(-c2nc3nc(C(=O)O)nc(N[C@H](C)C4CCC4)c3n2Cc2ccc(C(F)(F)F)cc2)cc1F [Example 1.102, 6-{[(1R)-1-cyclobutylethyl]amino}-8-(3-fluoro-4-methylphenyl)-7-[4-(trifluoromethyl)benzyl]-7H-purine-2-carboxylic acid] | 20.3 | –
C=C(C)c1cc(C)nc(-c2nc3nc(C(=O)O)nc(N[C@H](C)C4CCC4)c3n2Cc2ccc(C(F)(F)F)cc2)c1 [Example 1.5, (R)-6-((1-cyclobutylethyl)amino)-8-(6-methyl-4-(prop-1-en-2-yl)pyridin-2-yl)-7-(4-(trifluoromethyl)benzyl)-7H-purine-2-carboxylic acid] | 50.2 | –
Cc1ccc(-c2nc3nc(C(=O)O)nc(N[C@H](C)C4CC4)c3n2Cc2ccc(C(F)(F)F)cc2)cc1 [Example 2.33, 6-{[(1R)-1-cyclopropylethyl]amino}-8-(4-methylphenyl)-7-[4-(trifluoromethyl)benzyl]-7H-purine-2-carboxylic acid] | – | IC50 (Table 2): 401 nM
Cc1c(C(C)C)ccnc1-c1nc2nc(C(=O)O)nc(N[C@H](C)C3CCC3)c2n1Cc1ccc(C(F)(F)F)cc1 [Example 1.87, 6-{[(1R)-1-cyclobutylethyl]amino}-8-[3-methyl-4-(1-methylethyl)pyridin-2-yl]-7-[4-(trifluoromethyl)benzyl]-7H-purine-2-carboxylic acid] | 59 | –
CNC(=O)CCOc1ccc(C)cc1-c1nc2nc(C(=O)O)nc(N[C@H](C)C3CC3)c2n1Cc1ccc(Cl)cc1 [Example 4.13, (R)-7-(4-chlorobenzyl)-6-((1-cyclopropylethyl)amino)-8-(5-methyl-2-(3-(methylamino)-3-oxopropoxy)phenyl)-7H-purine-2-carboxylic acid] | – | IC50 (Table 4): 487 nM
C[C@@H](Nc1nc(C(=O)O)nc2nc(-c3ccc4sccc4c3)n(Cc3ccc(Cl)cc3)c12)C1CCC1 [Example 2.10, 8-(1-benzothiophen-5-yl)-7-(4-chlorobenzyl)-6-{[(1R)-1-cyclobutylethyl]amino}-7H-purine-2-carboxylic acid] | – | IC50 (Table 2): 7.2 nM
C[C@@H](Nc1nc(C(=O)O)nc2nc(-c3ccccc3)n(Cc3ccc(C(F)(F)F)cc3)c12)C1CC1 [Example 1.96, 6-{[(1R)-1-cyclopropylethyl]amino} -8-phenyl-7-[4-(trifluoromethyl)benzyl]-7H-purine-2-carboxylic acid] | 371 | –
CCOc1ccccc1Cn1c(-c2cccc(C)c2)nc2nc(C(=O)O)nc(N[C@H](C)C3CCC3)c21 [Example 5.6, 6-{[(1R)-1-cyclobutylethyl]amino}-7-(2-ethoxybenzyl)-8-(3-methylphenyl)-7H-purine-2-carboxylic acid] | – | IC50 (Table 5): 1840 nM
COc1ncc(-c2nc3nc(C(=O)O)nc(N[C@H](C)C4CC4)c3n2Cc2ccc(C(F)(F)F)cc2)cc1F [Example 2.49, 6-{[(1R)-1-cyclopropylethyl]amino}-8-(5-fluoro-6-methoxypyridin-3-yl)-7-[4-(trifluoromethyl)benzyl]-7H-purine-2-carboxylic acid] | – | IC50 (Table 2): 310 nM
Cc1cccc(-c2nc3nc(C(=O)O)nc(N[C@H](C)C4CCC4)c3n2Cc2ccc(OC(F)F)cc2)c1 [Example 5.13, 6-{[(1R)-1-cyclobutylethyl]amino}-7-[4-(difluoromethoxy)benzyl]-8-(3-methylphenyl)-7H-purine-2-carboxylic acid] | – | IC50 (Table 5): 128 nM
CC(C)c1ccc(OC(F)(F)F)c(-c2nc3nc(C(=O)O)nc(N[C@H](C)C4CCC4)c3n2Cc2ccc(C(F)(F)F)cc2)c1 [Example 1.52, 6-{[(1R)-1-cyclobutylethyl]amino}-8-[5-(1-methylethyl)-2-(trifluoromethoxy)phenyl]-7-[4-(trifluoromethyl)benzyl] - 7H-purine-2-carboxylic acid] | 6.25 | –
CCCc1ccnc(-c2nc3nc(C(=O)O)nc(N[C@H](C)C4CCC4)c3n2Cc2ccc(C(F)(F)F)c(F)c2)c1 [Example 1.80, 6-{[(1R)-1-cyclobutylethyl]amino}-7-[3-fluoro-4-(trifluoromethyl)benzyl]-8-(4-propylpyridin-2-yl)-7H-purine-2-carboxylic acid] | 7.45 | –
C[C@@H](Nc1nc(C(=O)O)nc2nc(-c3cccc(-n4cccc4)c3)n(Cc3ccc(C(F)(F)F)cc3)c12)C1CCC1 [Example 1.107, 6-{[(1R)-1-cyclobutylethyl]amino}-8-[3-(1H-pyrrol-1-yl)phenyl]-7-[4-(trifluoromethyl)benzyl]-7H-purine-2-carboxylic acid] | 34.8 | –
Cc1cnc(-c2nc3nc(C(=O)O)nc(N[C@H](C)C4CCC4)c3n2Cc2ccc(C(F)(F)F)cc2)cc1C(C)C [Example 1.86, 6-{[(1R)-1-cyclobutylethyl]amino}-8-[5-methyl-4-(1-methylethyl)pyridin-2-yl]-7-[4-(trifluoromethyl)benzyl]-7H-purine-2-carboxylic acid] | 24.8 | –
C[C@@H](Nc1nc(C(=O)O)nc2nc(-c3cccc(-c4ccccc4)n3)n(Cc3ccc(C(F)(F)F)cc3)c12)C1CCC1 [Example 1.63, 6-{[(1R)-1-cyclobutylethyl]amino}-8-(6-phenylpyridin-2-yl)-7-[4-(trifluoromethyl)benzyl] - 7H-purine-2-carboxylic acid] | 324 | –
COc1ccc(-c2nc3nc(C(=O)O)nc(N[C@H](C)C4CCC4)c3n2Cc2ccc(C(F)(F)F)cc2)cc1C [Example 1.105, 6-{[(1R)-1-cyclobutylethyl]amino}-8-(4-methoxy-3-methylphenyl)-7-[4-(trifluoromethyl)benzyl]-7H-purine-2-carboxylic acid] | 16.5 | –
CC(C)c1cccc(-c2nc3nc(C(=O)O)nc(N[C@H](C)C4CCC4)c3n2Cc2ccc(C(F)(F)F)cc2)n1 [Example 1.70, 6-{[(1R)-1-cyclobutylethyl]amino}-8-[6-(1-methylethyl)pyridin-2-yl]-7-[4-(trifluoromethyl)benzyl]-7H-purine-2-carboxylic acid] | 46.9 | –
CCc1ccc(Cn2c(-c3cccc(C)c3)nc3nc(C(=O)O)nc(N[C@H](C)C4CC4)c32)cc1 [Example 5.20, 6-{[(1R)-1-cyclopropylethyl]amino}-7-(4-ethylbenzyl)-8-(3-methylphenyl)-7H-purine-2-carboxylic acid] | – | IC50 (Table 5): 1200 nM
Cc1cc(C)cc(-c2nc3nc(C(=O)O)nc(N[C@H](C)C4CC4)c3n2Cc2ccc(C(F)(F)F)cc2)c1 [Example 2.50, 6-{[(1R)-1-cyclopropylethyl]amino}-8-(3,5-dimethylphenyl)-7-[4-(trifluoromethyl)benzyl]-7H-purine-2-carboxylic acid] | – | IC50 (Table 2): 120 nM
C[C@@H](Nc1nc(C(=O)O)nc2nc(-c3ncccc3C(F)(F)F)n(Cc3ccc(C(F)(F)F)cc3)c12)C1CCC1 [Example 1.135, 6-{[(1R)-1-cyclobutylethyl]amino}-7-[4-(trifluoromethyl)benzyl]-8-[3-(trifluoromethyl)pyridin-2-yl]-7H-purine-2-carboxylic acid] | 47.9 | –
C[C@@H](Nc1nc(C(=O)O)nc2nc(-c3cccc(C#N)c3)n(Cc3ccc(C(F)(F)F)cc3)c12)C1CCC1 [Example 2.45, 8-(3-cyanophenyl)-6-{[(1R)-1-cyclobutylethyl]amino}-7-[4-(trifluoromethyl)benzyl]-7H-purine-2-carboxylic acid] | – | IC50 (Table 2): 63 nM
